{"source": "PubChem BioAssay (NCI)", "assay_in_all_cases": "growth of human tumour cells (NCI), 48 h", "key": {"[1]": {"system": "NCI-H522 lung"}, "[2]": {"system": "RPMI-8226 leukemia"}, "[3]": {"system": "HS 578T breast"}, "[4]": {"system": "COLO 205 colon"}, "[5]": {"system": "TK-10 renal"}, "[6]": {"system": "U251 CNS"}, "[7]": {"system": "SNB-19 CNS"}, "[8]": {"system": "MALME-3M melanoma"}, "[9]": {"system": "OVCAR-3 ovarian"}, "[10]": {"system": "CAKI-1 renal"}, "[11]": {"system": "HOP-92 NSCLC"}, "[12]": {"system": "HOP-62 NSCLC"}, "[13]": {"system": "SR leukemia"}, "[14]": {"system": "A549 NSCLC"}, "[15]": {"system": "MDA-MB-435"}, "[16]": {"system": "IGROV1 ovarian"}, "[17]": {"system": "OVCAR-5 ovarian"}, "[18]": {"system": "NCI-H226 lung"}, "[19]": {"system": "T-47D breast"}, "[20]": {"system": "SK-OV-3 ovarian"}, "[21]": {"system": "SN12C renal"}, "[22]": {"system": "UACC-62 melanoma"}, "[23]": {"system": "HT29 colon"}, "[24]": {"system": "LOX IMVI melanoma"}, "[25]": {"system": "NCI/ADR-RES ovarian"}, "[26]": {"system": "SF-539 CNS"}, "[27]": {"system": "OVCAR-8 ovarian"}, "[28]": {"system": "DU-145 prostate"}, "[29]": {"system": "SF-295 CNS"}}, "note": "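1) Cells in 96-well plates. 2) Compound, 48 h, 5 concentrations. 3) Linear interpolation between surrounding doses. 4) Unreached endpoint = highest concentration. GI50 marks 50% less growth. TGI denotes the concentration required for complete inhibition of growth.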", "data": [{"smiles": "O=C1NC(=C(Cl)Cl)/C(=N/S(=O)(=O)N2CCCCC2CC2(C(F)(F)F)N=N2)N1", "note": "(configuration not stated)", "values": [{"measurement": "GI50", "setting": "[1]", "value": 1.54, "unit": "µM"}, {"measurement": "TGI", "setting": "[1]", "value": 3.13, "unit": "µM"}, {"measurement": "GI50", "setting": "[2]", "value": 0.385, "unit": "µM"}, {"measurement": "TGI", "setting": "[2]", "value": 8.08, "unit": "µM"}, {"measurement": "GI50", "setting": "[3]", "value": 2.83, "unit": "µM"}, {"measurement": "TGI", "setting": "[3]", "value": 9.84, "unit": "µM"}, {"measurement": "GI50", "setting": "[4]", "value": 1.89, "unit": "µM"}, {"measurement": "TGI", "setting": "[4]", "value": 3.68, "unit": "µM"}, {"measurement": "GI50", "setting": "[5]", "value": 4.53, "unit": "µM"}, {"measurement": "TGI", "setting": "[5]", "value": 14.2, "unit": "µM"}, {"measurement": "GI50", "setting": "[6]", "value": 1.86, "unit": "µM"}, {"measurement": "TGI", "setting": "[6]", "value": 3.67, "unit": "µM"}, {"measurement": "GI50", "setting": "[7]", "value": 2, "unit": "µM"}, {"measurement": "TGI", "setting": "[7]", "value": 4.53, "unit": "µM"}, {"measurement": "GI50", "setting": "[8]", "value": 1.57, "unit": "µM"}, {"measurement": "TGI", "setting": "[8]", "value": 2.99, "unit": "µM"}, {"measurement": "GI50", "setting": "[9]", "value": 2.05, "unit": "µM"}, {"measurement": "TGI", "setting": "[9]", "value": 4.13, "unit": "µM"}, {"measurement": "GI50", "setting": "[10]", "value": 1.7, "unit": "µM"}, {"measurement": "TGI", "setting": "[10]", "value": 3.09, "unit": "µM"}, {"measurement": "GI50", "setting": "[11]", "value": 1.73, "unit": "µM"}, {"measurement": "TGI", "setting": "[11]", "value": 3.61, "unit": "µM"}, {"measurement": "GI50", "setting": "[12]", "value": 3.22, "unit": "µM"}, {"measurement": "TGI", "setting": "[12]", "value": 13.5, "unit": "µM"}, {"measurement": "GI50", "setting": "[13]", "value": 0.431, "unit": "µM"}, {"measurement": "TGI", "setting": "[13]", "value": 2.67, "unit": "µM"}, {"measurement": "GI50", "setting": "[14]", "value": 3.72, "unit": "µM"}, {"measurement": "TGI", "setting": "[14]", "value": 14, "unit": "µM"}, {"measurement": "GI50", "setting": "[15]", "value": 2.24, "unit": "µM"}, {"measurement": "TGI", "setting": "[15]", "value": 5.38, "unit": "µM"}, {"measurement": "GI50", "setting": "[16]", "value": 1.58, "unit": "µM"}, {"measurement": "TGI", "setting": "[16]", "value": 3.09, "unit": "µM"}, {"measurement": "GI50", "setting": "[17]", "value": 1.9, "unit": "µM"}, {"measurement": "TGI", "setting": "[17]", "value": 3.84, "unit": "µM"}, {"measurement": "GI50", "setting": "[18]", "value": 15.5, "unit": "µM"}, {"measurement": "TGI", "setting": "[18]", "value": 44.4, "unit": "µM"}, {"measurement": "GI50", "setting": "[19]", "value": 4.16, "unit": "µM"}, {"measurement": "TGI", "setting": "[19]", "value": 22.1, "unit": "µM"}, {"measurement": "GI50", "setting": "[20]", "value": 15.1, "unit": "µM"}, {"measurement": "TGI", "setting": "[20]", "value": 29.8, "unit": "µM"}, {"measurement": "GI50", "setting": "[21]", "value": 1.29, "unit": "µM"}, {"measurement": "TGI", "setting": "[21]", "value": 2.57, "unit": "µM"}, {"measurement": "GI50", "setting": "[22]", "value": 1.74, "unit": "µM"}, {"measurement": "TGI", "setting": "[22]", "value": 3.57, "unit": "µM"}, {"measurement": "GI50", "setting": "[23]", "value": 1.88, "unit": "µM"}, {"measurement": "TGI", "setting": "[23]", "value": 3.61, "unit": "µM"}, {"measurement": "GI50", "setting": "[24]", "value": 0.43, "unit": "µM"}, {"measurement": "TGI", "setting": "[24]", "value": 1.58, "unit": "µM"}, {"measurement": "GI50", "setting": "[25]", "value": 3.45, "unit": "µM"}, {"measurement": "TGI", "setting": "[25]", "value": 15.4, "unit": "µM"}, {"measurement": "GI50", "setting": "[26]", "value": 1.79, "unit": "µM"}, {"measurement": "TGI", "setting": "[26]", "value": 3.56, "unit": "µM"}, {"measurement": "GI50", "setting": "[27]", "value": 2.21, "unit": "µM"}, {"measurement": "TGI", "setting": "[27]", "value": 5.17, "unit": "µM"}, {"measurement": "GI50", "setting": "[28]", "value": 3.47, "unit": "µM"}, {"measurement": "TGI", "setting": "[28]", "value": 11.8, "unit": "µM"}, {"measurement": "GI50", "setting": "[29]", "value": 3.23, "unit": "µM"}]}]}
